In this assay the target is T1, Human IP6K1 (Homo sapiens, UniProt Q92551).
T1 construct: GST (N, cleaved yes); made in house; host or cells: C43 E. coli, pGEX-6P-2
Description: IP6K1 high-throughput screen of the Sigma LOPAC (ADP-Glo Max, single point).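 Also: final compound concentration 10µM in 5% DMSO.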 Type of assay: biochemical. For orientation: ADP-Glo turns the ADP formed in a reaction into a luminescent signal.

The mark [1] stands for this setting: Sigma LOPAC single-point screen, ADP-Glo Max raw signal per well.
Where [2] appears, read: Sigma LOPAC single-point screen, Z-score from plate average and StDev.
The mark [3] stands for this setting: LOPAC single-point screen, ADP-Glo Max luminescence raw signal per well.
The mark [4] stands for this setting: LOPAC single-point screen, Z-score relative to plate average and StDev.
[5] abbreviates: LOPAC single-point screen, ADP-Glo Max raw signal per well.
[6] abbreviates: LOPAC single-point screen, Z-score from raw signal with plate average and StDev.
Where [7] appears, read: LOPAC single-point screen, Z-score against plate average and StDev.
Where [8] appears, read: LOPAC single-point screen, Z-score from plate average and StDev.

Each structure is given as a SMILES string. Structures can show the parent of a compound that is named as a salt.

T1 sequence (Q92551 whole entry): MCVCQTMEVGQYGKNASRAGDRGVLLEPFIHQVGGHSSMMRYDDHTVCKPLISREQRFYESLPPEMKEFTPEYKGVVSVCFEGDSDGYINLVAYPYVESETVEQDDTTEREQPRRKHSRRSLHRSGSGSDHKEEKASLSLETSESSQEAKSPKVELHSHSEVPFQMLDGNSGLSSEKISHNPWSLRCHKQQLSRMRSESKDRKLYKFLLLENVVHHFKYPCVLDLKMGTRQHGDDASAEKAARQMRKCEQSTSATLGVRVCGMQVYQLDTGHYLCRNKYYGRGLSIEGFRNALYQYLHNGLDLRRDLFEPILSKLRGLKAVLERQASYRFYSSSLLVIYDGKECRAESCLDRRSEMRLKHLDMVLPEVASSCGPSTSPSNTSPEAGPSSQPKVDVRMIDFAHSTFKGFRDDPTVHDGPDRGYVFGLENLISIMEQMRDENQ

`NC(=O)OCC(COC(N)=O)c1ccccc1` [Felbamate]: the “Raw Signal” value under setting [1] amounted to 58283. Under setting [2], this compound showed a Z-score of 0.6328.
Regarding `CCn1cc(C(=O)O)c(=O)c2cc(F)c(N3CCNC(C)C3)c(F)c21` (stereo not shown) [Lomefloxacin hydrochloride], under setting [3], the “Raw Signal” value turned out to be 49930. Besides, the Z-score under setting [4] is given as -0.75.
In the same order, the values of `CNCCc1ccc(O)c(O)c1.Cl` [N-Methyldopamine hydrochloride] are 45936 and -1.875.
With `CC1=C(C(=O)O)N2C(=O)[C@@H](NC(=O)[C@H](N)C3=CCC=CC3)[C@H]2SC1` [Cephradine], under setting [5], the “Raw Signal” value was found to be 56353. The compound further had a Z-score under setting [6] of -0.2748.
Regarding `Cl.NC1C=CC=C(C(=O)O)C1` (stereo not shown) [Gabaculine hydrochloride], the “Raw Signal” value under setting [1] is 64092. Besides, under setting [2], the Z-score is reported as 1.088.
In the case of `CC(=O)OCC1=C(C(=O)O)N2C(=O)[C@@H](NC(=O)Cc3cccs3)[C@H]2SC1` [Cephalothin sodium], under setting [5], the “Raw Signal” value was 58709. The same compound had a Z-score under setting [7] of 0.1402.
As to `CN(C)CCOC(C)(c1ccccc1)c1ccccn1` (stereo not shown) [Doxylamine succinate], under setting [3], the “Raw Signal” value came to 49925. The Z-score under setting [4] is recorded as -1.065.
With `COc1ccc2c(c[n+](C)c3c4cc5c(cc4ccc23)OCO5)c1OC` [Chelerythrine chloride], the “Raw Signal” value under setting [3] is reported as 66575. The compound also registered a Z-score under setting [8] of 1.5256.
For `O=C(N[C@@H](Cc1ccccc1)C(=O)CCl)OCc1ccccc1` [Z-L-Phe chloromethyl ketone], the “Raw Signal” value under setting [5] is recorded as 56278. The compound further returned a Z-score under setting [6] of -0.288.
In the same order, the values of `Cc1cc(NC(=O)Nc2ccc3c(ccn3C)c2)sn1` [SB 204741] are 55947 and -0.3463.
Regarding `CC12NC(Cc3ccccc31)c1ccccc12.O=C(O)/C=C\C(=O)O` (single isomer, unassigned; (+)) [(+)-MK-801 hydrogen maleate], under setting [1], the “Raw Signal” value was 58157. This compound returned a Z-score under setting [2] of 0.6324.
For `Cl.Cl.NCCNS(=O)(=O)c1cccc2cnccc12` [H-9 dihydrochloride] the same measures were 64375 and 1.138.
For `C#C[C@]1(O)CC[C@H]2[C@@H]3CCC4=Cc5nc6nc7ccccc7n6cc5C[C@]4(C)[C@H]3CC[C@@]21C` [WIN 62,577], the “Raw Signal” value under setting [1] came to 58080. This compound also showed a Z-score under setting [2] of 0.3995.
`N[C@@H](Cn1cc(I)c(=O)[nH]c1=O)C(=O)O` [S-5-Iodowillardiine]: under setting [5], the “Raw Signal” value was 55016. The same compound yielded a Z-score under setting [6] of -0.1958.
In the same order, the values of `Cl.Cn1ccc2cc(NC(=O)Nc3cccnc3)ccc21` [SB 200646 hydrochloride] are 55663 and -0.3963.
Regarding `CCCCCCCCCCCCCCCCCCNC(=O)OCC(COP(=O)([O-])OCC[n+]1ccsc1)OC` (stereo not shown) [CV-3988], the “Raw Signal” value under setting [3] is listed as 52703. The same compound yielded a Z-score under setting [4] of -0.6452.
Turning to `CCOC(=O)[C@]12CC1/C(=N\O)c1ccccc1O2` (mixture of isomers) [CPCCOEt], under setting [5], the “Raw Signal” value was determined as 59801. For the same compound, the Z-score under setting [7] is on record as 0.3325.
For `CC(C)(C)NC[C@H](O)COc1nsnc1N1CCOCC1.O=C(O)/C=C\C(=O)O` [S(-)-Timolol maleate] the same measures were 57221 and 0.2326.
For the compound `NC(=O)c1ncn([C@@H]2O[C@H](CO)[C@@H](O)[C@H]2O)c1O` [Mizoribine], under setting [3], the “Raw Signal” value was 51474. In addition, the Z-score under setting [4] is -0.4906.
In the case of `N=C(N)NC(CCC(=O)O)C(=O)O` (stereo not drawn) [alpha-Guanidinoglutaric acid], the “Raw Signal” value under setting [5] was 54052. Moreover, the Z-score under setting [6] is given as -0.2265.
Regarding `CN1CC[C@@]2(C)c3cc(O)ccc3N(C)[C@@H]12.O=C(O)/C=C/C(=O)O` [(-)-Eseroline fumarate], the “Raw Signal” value under setting [1] is listed as 57638. For the same compound, the Z-score under setting [2] was 0.5018.
For the compound `NC(=O)CN1CC(O)CC1=O` (stereo not shown) [Oxiracetam], under setting [5], the “Raw Signal” value worked out at 55053. Further, under setting [7], the Z-score amounted to 0.1108.
On to `Cl.O[Si](CCCN1CCCCC1)(c1ccc(F)cc1)C1CCCCC1` (stereo not shown), for which the “Raw Signal” value under setting [5] is on record as 52920. Besides, the Z-score under setting [6] was -0.4564.
As for `C[N+](C)(C)CCCCCC[N+](C)(C)C.[Cl-].[Cl-]` [Hexamethonium dichloride], the “Raw Signal” value under setting [1] is recorded as 57643. Further, the Z-score under setting [2] was determined as 0.5028.
As to `Nc1ccncc1` [4-Aminopyridine], the “Raw Signal” value under setting [5] turned out to be 56638. The compound further returned a Z-score under setting [6] of -0.2246.
`CC(C)Cc1ccc(C(C)C(=O)O)cc1` (racemic) [(±)-Ibuprofen]: the “Raw Signal” value under setting [1] turned out to be 57086. Under setting [2], this compound gave a Z-score of 0.4524.
As for `C[C@](N)(Cc1ccc(O)c(O)c1)C(=O)O` [L-alpha-Methyl DOPA], the “Raw Signal” value under setting [3] amounted to 24071. Under setting [4], this compound had a Z-score of -5.095.
In the same order, the values of `CC1=C[C@@H]2c3cccc4[nH]cc(c34)C[C@H]2N(C)C1` [Agroclavine] are 53866 and -0.7128.
On to `CN1CCN(C(=O)OC2c3nccnc3C(=O)N2c2ccc(Cl)cn2)CC1` (stereo not shown) [Zopiclone], for which the “Raw Signal” value under setting [5] is on record as 56506. Under setting [7], this compound returned a Z-score of 0.09368.
Turning to `CC(C)Cc1ccc([C@H](C)C(=O)O)cc1` [S(+)-Ibuprofen], the “Raw Signal” value under setting [5] is given as 55445. The Z-score under setting [7] stood at 0.1767.
As for `CC(C)(Sc1ccc(CCN(CCCCC2CCCCC2)C(=O)NC2CCCCC2)cc1)C(=O)O` [GW7647], under setting [3], the “Raw Signal” value is reported as 52814. This compound had a Z-score under setting [4] of -0.4779.
In the case of `C=CCc1ccccc1OCC(O)CNC(C)C` (stereo not shown) [Alprenolol hydrochloride], the “Raw Signal” value under setting [1] is reported as 60855. Under setting [2], this compound yielded a Z-score of 0.5181.
As to `CCCC(=O)NCCc1c2n(c3ccc(OC)cc13)Cc1ccccc1-2` [IIK7], under setting [5], the “Raw Signal” value is 53632. For the same compound, under setting [6], the Z-score is on record as -0.128.
In the same order, the values of `CC(N)(C(=O)O)c1ccc(C(=O)O)cc1` (racemic) [(±)-alpha-Methyl-4-carboxyphenylglycine] are 51961 and -0.4087.
Regarding `O=C(O)CCCc1ccc(N(CCCl)CCCl)cc1` [Chlorambucil], the “Raw Signal” value under setting [5] was 57590. Under setting [7], this compound returned a Z-score of -0.05691.
As to `O=C[C@H](Cl)[C@@H](O)[C@H](O)[C@H](O)CO` [2-Chloro-2-deoxy-D-glucose], under setting [1], the “Raw Signal” value was 57775. Moreover, under setting [2], the Z-score came to 0.5297.
Regarding `Cl.Cl.c1ccc(CCCN2CCN(CCOC(c3ccccc3)c3ccccc3)CC2)cc1` [GBR-12935 dihydrochloride], under setting [3], the “Raw Signal” value is 62907. This compound registered a Z-score under setting [8] of 1.572.
Turning to `CCCCCCC(C(C)O)n1cnc2c(N)ncnc21.Cl` (stereo not shown), the “Raw Signal” value under setting [3] was 51235. The compound further displayed a Z-score under setting [4] of -0.7986.
In the same order, the values of `c1ccc(C2CC2)c(OCC2=NCCN2)c1` [Cirazoline hydrochloride] are 48676 and -1.318.
For `CCC(NC(C)C)C(O)c1ccc(O)c(O)c1.CS(=O)(=O)O` (stereo not shown) [Isotharine mesylate], the “Raw Signal” value under setting [5] is reported as 54100. This compound also yielded a Z-score under setting [7] of -0.04932.
`CC1Cc2cc3c(cc2C(c2ccc(N)cc2)=NN1)OCO3` (stereo not shown) [GYKI 52895]: the “Raw Signal” value under setting [3] turned out to be 63898. Under setting [8], this compound returned a Z-score of 1.773.
